Laboratory results reported in PMC9053583, “A novel series of phenolic temozolomide (TMZ) esters with 4 to 5-fold increased potency, compared to TMZ, against glioma cells irrespective of MGMT expression” (RSC Advances, 2020).
Where two headings read alike, the source gives them in different places.

Assays:
[1] = Solubility in cell culture medium; type: physicochemical
Description: The maximum concentration that could be achieved in medium for amide analogues 4a and 4c was approximately 200 μM, at which IC50 values could not be generated and were also eliminated from further studies.
(§1) Cells were seeded in the appropriate media in each well of a Costar 96-well plate at a density of 5 × 10^2 immortalised cells; 2 × 10^3 (primary cells). The plates were incubated at 37 °C and 5% CO2 in a humidified incubator for 24 hours to allow cells to adhere. Each of the drugs tested were dissolved in DMSO to afford a 200 mM stock solution. The stock solutions were diluted with medium to afford the final working concentrations, ensuring DMSO concentration was no greater than 0.5% (v/v). Drug concentrations were added to the cells and incubated for 144 hours. After incubation, the drug concentrations were removed and replaced with 100 μL of CellTiter-Glo® and 100 μL of media. The luminescence of each well was measured on GENios Pro plate reader. The results for each of the drug concentrations were expressed as a percentage of the control wells. For cell lines, the regression equation for a polynomial line of best fit of order 2 was used to calculate the IC50. In the case of the in vitro model used in the present study, the IC50 was defined as the concentration of drug that results in a 50% reduction in oxyluciferin production. Primary culture cells were incubated with clinically relevant concentrations for 144 hours. Viability was expressed as a percentage of the control wells. Each experiment involving cell lines was carried out in triplicate of triplicates. Experiments using patient derived primary cultures were carried out in triplicate.

U87-MG cells = experiment: CellTiter-Glo cytotoxicity against U87-MG cells; type: cell-based; conditions: Homo sapiens, U-87 MG, 144 hours incubation, IC50 ± SD (n = 3)
Description: (§2) Apoptosis of glioma cells induced by TMZ, occurs at least 120 hours after treatment.[7] Consequently, cells were incubated for 144 hours with specified TMZ analogues in the in vitro investigations in order to obtain more reliable IC50 values.
(§3) 1321-N1 (human astrocytoma) was maintained in DMEM medium supplemented with 2 mM L-glutamine and 10% FBS. GOS-3, (human brain mixed astro-oligodendroglioma) was maintained in DMEM medium supplemented with 2 mM L-glutamine and 10% […]. U87-MG, (human glioblastoma) and SVGp12 (normal human astroglia) were maintained in EMEM medium supplemented with 2 mM L-glutamine, 1 mM sodium pyruvate and 10% FBS. All cell lines were incubated at 37 °C and 5% CO2 in a humidified incubator. Primary BTNW cultures were maintained in Ham's F10 nutrient mixture, containing 20 mM HEPES, 2 mM glutamine and 10% FBS. Primary cultures were incubated in a humidified incubator at 37 °C.
as §1
(§4) Initial screening of the 25 analogues was completed using the U87-MG cell line. The most promising analogues from the initial screening were taken forward and tested against the 1321-N1, GOS-3 and SVG-p12 cell lines. The results of all 4 cell lines were compiled and the analogues that were deemed to be the most promising drug candidates were tested against primary cultures at clinically relevant concentrations.

1321-N1 = experiment: CellTiter-Glo cytotoxicity against 1321-N1 cells; type: cell-based; conditions: Homo sapiens, 144 hours incubation, IC50 ± SD (n = 3)
Description: as §2, §3, §1, §4

BTNW914 (MGMT−) = experiment: Cell viability of patient derived primary GBM culture BTNW914 (MGMT−); type: cell-based, human; conditions: 6 days incubation
Description: (§5) Fig. 2 (A) Cell viability of BTNW914 (MGMT−) after treatment by TMZ and phenyl TMZ ester analogues at various clinically relevant concentrations and incubation for 6 days. (B) Cell Viability of BTNW374 (MGMT+) after treatment by TMZ and phenyl TMZ ester analogues at various clinically relevant concentrations. Values are reported as the percentage of viable cells ± SD, n = 3.
(§6) Cytotoxic evaluation of the analogues was completed against 4 cell lines and 2 primary GBM cultures. The human glioma cell lines, GOS-3, U87-MG and 1321-N1 along with the human astroglial cell line, SVGp12, were purchased from The European Collection of Cell Cultures (ECCAC, UK) and Deutsche Sammlung von Mikroorganismen und Zellkulturen (DMSZ, Germany). Patient derived primary GBM cultures, BTNW374 and BTNW914, were obtained from The Brain Tumour North West Tissue Bank in collaboration with The Royal Preston Hospital. Patient data for primary cells was included as part of the ESI. ^†
as §3, §1

GOS-3 = experiment: CellTiter-Glo cytotoxicity against GOS-3 cells; type: cell-based; conditions: Homo sapiens; 144 hours incubation, IC50 ± SD (n = 3)
Description: as §2, §3, §1, §4

SVGp12 = experiment: CellTiter-Glo cytotoxicity against normal SVGp12 cell line; type: cell-based; conditions: Homo sapiens, 144 hours incubation, IC50 ± SD (n = 3)
Description: as §2, §3, §1, §4

BTNW374 (MGMT+) = experiment: Cell viability of patient derived primary GBM culture BTNW374 (MGMT+); type: cell-based, human; conditions: human, 144 h, 75 μM
Description: as §5, §6, §3, §1

[2] = initial screening, CellTiter-Glo, read-out: IC50 against U87-MG cells
[3] = lead analogues (Table 2), read-out: IC50 U87-MG

| SMILES | solubility in cell culture medium [1] | melting point | IC50 (U87-MG cells; [2]) | also measured |
| --- | --- | --- | --- | --- |
| COc1ccc(CCOC(=O)c2ncn3c(=O)n(C)nnc23)cc1 [Analogue 3e, 4-Methoxyphenethyl 3-methyl-4-oxo-3,4-dihydroimidazo[5,1-d][1,2,3,5]tetrazine-8-carboxylate] | insoluble | 164 °C |  |  |
| Cc1ccc(CNC(=O)c2ncn3c(=O)n(C)nnc23)cc1 [Analogue 4j, 3-Methyl-N-(4-methylbenzyl)-4-oxo-3,4-dihydroimidazo[5,1-d][1,2,3,5]tetrazine-8-carboxamide] |  | 152 °C | 139 ± 28 µM |  |
| CCOC(=O)c1ncn2c(=O)n(C)nnc12 [Analogue 3a, Ethyl 3-methyl-4-oxo-3,4-dihydroimidazo[5,1-d][1,2,3,5]tetrazine-8-carboxylate] |  | 130 °C | 700 ± 109 µM |  |
| Cn1nnc2c(C(=O)Nc3ccc(C#N)cc3)ncn2c1=O [Analogue 4f, N-(4-Cyanophenyl)-3-methyl-4-oxo-3,4-dihydroimidazo[5,1-d][1,2,3,5]tetrazine-8-carboxamide] | insoluble | 234 °C |  |  |
| COc1ccccc1NC(=O)c1ncn2c(=O)n(C)nnc12 [Analogue 4h, N-(2-Methoxyphenyl)-3-methyl-4-oxo-3,4-dihydroimidazo[5,1-d][1,2,3,5]tetrazine-8-carboxamide] | insoluble | 193 °C |  |  |
| Cn1nnc2c(C(=O)Oc3ccccc3)ncn2c1=O [Analogue 3l, Phenyl 3-methyl-4-oxo-3,4-dihydroimidazo[5,1-d][1,2,3,5]tetrazine-8-carboxylate] |  | 149 °C | 331 ± 47 µM | IC50 (1321-N1): 511 ± 10 µM; reduction in viability against MGMT devoid GBM cells (BTNW914 (MGMT−); at 75 μM): greater than 50%; IC50 (U87-MG cells; [3]): 330 ± 47 µM; IC50 (GOS-3): 691 ± 35 µM; IC50 (SVGp12): 238 ± 6 µM |
| Cn1nnc2c(C(=O)Oc3ccc(Cl)cc3)ncn2c1=O [Analogue 3j, 4-Chlorophenyl 3-methyl-4-oxo-3,4-dihydroimidazo [5,1-d][1,2,3,5] tetrazine-8-carboxylate] |  | 164 °C | 96 ± 3 µM | IC50 (1321-N1): 118 ± 11 µM; IC50 (BTNW914 (MGMT−); Homo sapiens, 144 h, read-out: IC50 against MGMT devoid GBM primary cells): < 15 µM; IC50 (U87-MG cells; [3]): 96 ± 3 µM; cytotoxicity against MGMT positive patient derived primary culture (BTNW374 (MGMT+)): generated cytotoxicity at 75 μM; IC50 (GOS-3): 54 ± 4 µM; IC50 (SVGp12): 33 ± 1 µM |
| Cn1nnc2c(C(=O)Nc3ccccc3)ncn2c1=O [Analogue 4c, 3-Methyl-4-oxo-N-phenyl-3,4-dihydroimidazo[5,1-d][1,2,3,5]tetrazine-8-carboxamide] | insoluble | 189 °C | > 200 µM | maximum concentration that could be achieved in medium [1]: approximately 200 μM |
| Cn1nnc2c(C(=O)NCCc3ccccc3)ncn2c1=O [Analogue 4b, 3-Methyl-4-oxo-N-phenethyl-3,4-dihydroimidazo[5,1-d] [1,2,3,5]tetrazine-8-carboxamide] |  | 158 °C | 548 ± 48 µM |  |
| CN(C)CCCOC(=O)c1ncn2c(=O)n(C)nnc12 [Analogue 3g, 3-(Dimethylamino)propyl 3-methyl-4-oxo-3,4-dihydroimidazo[5,1-d][1,2,3,5]tetrazine-8-carboxylate] |  | 204 °C | 856 ± 20 µM |  |
| Cn1nnc2c(C(=O)NCc3ccc(Cl)cc3)ncn2c1=O [Analogue 4k, N-(4-Chlorobenzyl)-3-methyl-4-oxo-3,4-dihydroimidazo[5,1-d][1,2,3,5]tetrazine-8-carboxamide] | insoluble | 148 °C |  | IC50 (1321-N1): > 200 µM; IC50 (U87-MG cells; [3]): 138 ± 28 µM; IC50 (GOS-3): > 200 µM; IC50 (SVGp12): 79 ± 6 µM |
| COc1ccc(NC(=O)c2ncn3c(=O)n(C)nnc23)cc1 [Analogue 4d, N-(4-Methoxyphenyl)-3-methyl-4-oxo-3,4-dihydroimidazo[5,1-d][1,2,3,5]tetrazine-8-carboxamide] | insoluble | 192 °C |  |  |
| Cn1nnc2c(C(=O)Nc3ccc(Cl)cc3)ncn2c1=O [Analogue 4e, N-(4-Chlorophenyl)-3-methyl-4-oxo-3,4-dihydroimidazo[5,1-d][1,2,3,5]tetrazine-8-carboxamide] | insoluble | 200 °C |  |  |
| COc1ccc(CNC(=O)c2ncn3c(=O)n(C)nnc23)cc1 [Analogue 4i, N-(4-Methoxybenzyl)-3-methyl-4-oxo-3,4-dihydroimidazo[5,1-d][1,2,3,5]tetrazine-8-carboxamide] | insoluble | 193 °C |  |  |
| CCCCCCOC(=O)c1ncn2c(=O)n(C)nnc12 [Analogue 3b, Hexyl 3-methyl-4-oxo-3,4-dihydroimidazo[5,1-d][1,2,3,5]tetrazine-8-carboxylate] |  | 76 °C | 409 ± 45 µM | IC50 (1321-N1): 269 ± 20 µM; IC50 (U87-MG cells; [3]): 409 ± 45 µM; IC50 (GOS-3): 269 ± 6 µM; IC50 (SVGp12): 182 ± 11 µM |
| COc1ccc(COC(=O)c2ncn3c(=O)n(C)nnc23)cc1 [Analogue 3f, 4-Methoxybenzyl 3-methyl-4-oxo-3,4-dihydroimidazo[5,1-d][1,2,3,5]tetrazine-8-carboxylate] | insoluble | 170 °C |  |  |
| CCCCCCNC(=O)c1ncn2c(=O)n(C)nnc12 [Analogue 4a, N-Hexyl-3-methyl-4-oxo-3,4-dihydroimidazo[5,1-d][1,2,3,5]tetrazine-8-carboxamide] | insoluble | 138 °C | > 200 µM | maximum concentration that could be achieved in medium [1]: approximately 200 μM |
| Cc1ccc(NC(=O)c2ncn3c(=O)n(C)nnc23)cc1 [Analogue 4g, 3-Methyl-4-oxo-N-(p-tolyl)-3,4-dihydroimidazo[5,1-d][1,2,3,5]tetrazine-8-carboxamide] | insoluble | 209 °C |  |  |
| COc1ccccc1OC(=O)c1ncn2c(=O)n(C)nnc12 [Analogue 3m, 2-Methoxyphenyl 3-methyl-4-oxo-3,4-dihydroimidazo[5,1-d][1,2,3,5]tetrazine-8-carboxylate] |  | 165 °C | 576 ± 91 µM |  |
| Cn1nnc2c(C(=O)O)ncn2c1=O [TMZ acid, 3-methyl-4-oxo-3,4-dihydroimidazo[5,1-d][1,2,3,5]tetrazine-8-carboxylic acid] |  |  | 662 ± 42 µM | IC50 (1321-N1): 596 ± 26 µM; IC50 (U87-MG cells; [3]): 662 ± 42 µM; IC50 (GOS-3): 504 ± 30 µM; IC50 (SVGp12): 316 ± 2 µM |
| Cn1nnc2c(C(=O)OCCc3ccc([N+](=O)[O-])cc3)ncn2c1=O [Analogue 3d, 4-Nitrophenethyl 3-methyl-4-oxo-3,4-dihydroimidazo[5,1-d][1,2,3,5]tetrazine-8-carboxylate] | insoluble | 187 °C |  |  |
| Cn1nnc2c(C(=O)OCCc3ccccc3)ncn2c1=O [Analogue 3c, Phenethyl 3-methyl-4-oxo-3,4-dihydroimidazo[5,1-d][1,2,3,5]tetrazine-8-carboxylate] |  | 124 °C | 615 ± 96 µM |  |
